Results from US8557737B2, “Methods of altering poppy characteristics” (priority 2005, dated 2013).
Like-named read-outs stand apart in the source and are kept apart here.

How the values were obtained:
poppy crops [1] = test: Example 11: field trial, metsulfuron-methyl, Sunny and metsulfuron-methyl+Sunny at row cover, early run-up, bud-emergence/early hook, morphine crop; type: in vivo, Papaver somniferum; conditions: Trt 4: COMPOUND 1 120 MG/HA + PULSE .2% V/V at RC, ERU and BE/EH
Experimental: (§1) All trials were conducted on poppy crops. Seed was treated with Thiram (5.6 g of Thiram 800/kg seed) and Apron (4 g/kg) and sown at a rate of approximately 750 g/ha. Fertilisers were applied at sowing. Most commonly, either 50:50 lime:superphosphate/triple superphosphate at 125 kg/ha, or lime:superphosphate at 250 kg/ha, were mixed with seed and drilled at a depth of 15 mm. In the same operation, NPK (nitrogen:phosphorus:potassium), at various rates, was banded 75 mm below the seed, unless otherwise stated. All crops were subjected to herbicide sprays for weed control, fungicide sprays for disease control, insecticide sprays if appropriate and were irrigated as required.
(§2) All spray applications were made with a precision sprayer, using Silvan Lurmark flat-fan, low-drift nozzles (LD110-0015). Spray equipment was calibrated to deliver 153 L water/ha.
(§3) At harvest, a 2 m×4 m quadrat was placed in each plot (3 m×6 m, unless otherwise stated) and capsules hand-picked from this area. Capsules were broken up, seed and capsule material separated and weighed. Capsule moisture readings were taken with a moisture meter. Alkaloid yield data were calculated on Pesticide Research Manager (version 5 for Windows) using the formulae below. Briefly, capsule weight was adjusted for moisture to a dry weight, 5% of seed weight was added to this (this amount of capsule material regularly occurs in seed samples after processing) to give a capsule weight per plot. Seed weight was adjusted to 95% of crude weight. Straw weights were determined by multiplying dry capsule weight by 1.3 (estimated amount of stem material in a commercial harvest) and adjusted to 11% moisture. When Lontrel was applied to crops exact capsule and seed weight data were entered. Analyses of variance and a Multiple Range Test were performed on data using Pesticide Research Manager. Significant differences (P=0.05) between treatments are denoted by different lower case letters adjacent to treatment means in the tables of results.
Trial to evaluate applications of metsulfuron-methyl (Compound 1), Sunny and metsulfuron-methyl+Sunny, in a morphine crop. Treatment sprays were applied to crop at row cover, early run-up and bud-emergence/early hook. Plant heights were measured at green capsule stage.

poppy crops [2] = test: Example 13: field trial, metsulfuron-methyl, Lontrel and metsulfuron-methyl+Lontrel, morphine crop; type: in vivo, Papaver somniferum; conditions: Trt 3: COMPOUND 1 120 MG/HA + PULSE .2% V/V at RC, ERU and LRU
Experimental: as §1, §2, §3
Trial to evaluate applications of metsulfuron-methyl (Compound 1), Lontrel and metsulfuron-methyl+Lontrel, in a morphine crop. Treatment sprays were applied to crop at row cover, early run-up and late run-up. Plant heights were measured at green capsule stage. Lodging was assessed at harvest.

poppy crops [3] = test: Example 9: field trial, mesosulfuron-methyl and metsulfuron-methyl, morphine crop; type: in vivo, Papaver somniferum; conditions: COMPOUND 1 120 MG/HA + PULSE .2 % V/V at GC, LRU and EBE
Experimental: as §1, §2
as §3, with “Manager.” for “Manager. Significant differences (P=0.05) between treatments are denoted by different lower case letters adjacent to treatment means in the tables of results.”
Trial to evaluate applications of mesosulfuron-methyl (Compound 2) and metsulfuron-methyl (Compound 1), in a morphine crop. Treatment sprays were applied to crop at ground cover, late run-up and early bud-emergence, respectively. Plant heights were measured at green capsule stage, and lodging assessed on the day of capsule harvest.

poppy crops [4] = test: Example 12: field trial, metsulfuron-methyl, Sunny and metsulfuron-methyl+Sunny at row cover, early run-up, late run-up, morphine crop; type: in vivo, Papaver somniferum; conditions: Trt 3: COMPOUND 1 120 MG/HA + PULSE .2% V/V at RC, ERU and LRU
Experimental: as §1, §2, §3
Trial to evaluate applications of metsulfuron-methyl (Compound 1), Sunny and metsulfuron-methyl+Sunny, in a morphine crop. Treatment sprays were applied to crop at row cover, early run-up and late run-up. Plant heights were measured at end of flowering.

poppy crops [5] = system: poppy crops; set-up: species or system Papaver somniferum; conditions: in vivo
poppy crops [6] = test: Example 4: field trial, metsulfuron-methyl alone or tank-mixed with Sunny at early run-up, morphine crop; type: in vivo, Papaver somniferum; conditions: COMPOUND 1 120 MG/HA + PULSE .2 % v/v at ERU
Experimental: as §1, §2, §3
Trial to evaluate metsulfuron-methyl (Compound 1) (120 mg/ha) alone, or tank-mixed with Sunny (1 L/ha), in a morphine crop. Treatments were applied to crop at early run-up, plant heights were measured at early green capsule stage.

poppy crops [7] = test: Example 17: field trial, triasulfuron, mesosulfuron-methyl and metsulfuron-methyl at early run-up and mid-late run-up, morphine crop; type: in vivo, Papaver somniferum; conditions: Trt 2: COMPOUND 1 120 MG/HA + PULSE .2% V/V at ERU and M-LRU
Experimental: as §1, §2
as §3, with “Manager.” for “Manager. Significant differences (P=0.05) between treatments are denoted by different lower case letters adjacent to treatment means in the tables of results.”
Trial to evaluate applications of triasulfuron, mesosulfuron-methyl and metsulfuron-methyl, in a morphine crop. Treatment sprays were applied to with crop at early run-up and mid-late run-up, respectively. Plant heights were measured on 6 weeks after last application and lodging was assessed at capsule harvest.

Compound: COC(=O)c1ccccc1S(=O)(=O)NC(=O)Nc1nc(C)nc(OC)n1 [Compound 1, metsulfuron-methyl]
- CAPSULE/SEED RATIO (poppy crops [1]): 8.488 a
- CROP WEIGHT (poppy crops [1]): 3.22 d t/ha
- LODGING (poppy crops [1]): 1.2 b %
- MORPHINE (poppy crops [1]): 60.39 a kg/ha
- SEED (poppy crops [1]): 267 c kg/ha
- STRAW (poppy crops [1]): 2955 a kg/ha
- STRAW MORPHINE (poppy crops [1]): 2.04 a %
- HEIGHT (poppy crops [1]; height at green capsule stage): 99.2 a cm
- CAPS/SEED RATIO (poppy crops [2]): 3.431 a
- CROP WEIGHT (poppy crops [2]): 3.11 b t/ha
- MORPHINE (poppy crops [2]): 50.81 a kg/ha
- SEED (poppy crops [2]): 582 c kg/ha
- STRAW (poppy crops [2]): 2530 a kg/ha
- STRAW MORPHINE (poppy crops [2]): 2.01 a %
- LODGING (poppy crops [2]; assessed at harvest): 2.2 b %
- HEIGHT (poppy crops [2]; height at green capsule stage): 95.8 b cm
- CAPSULE/SEED RATIO (poppy crops [3]): 3.844 a
- CROP WEIGHT (poppy crops [3]): 2.67 b t/ha
- MORPHINE (poppy crops [3]): 43.94 a kg/ha
- SEED (poppy crops [3]): 468 b kg/ha
- STRAW (poppy crops [3]): 2206 a kg/ha
- STRAW MORPHINE (poppy crops [3]): 2.04 a %
- LODGING (poppy crops [3]; assessed on the day of capsule harvest): 2.3 c %
- HEIGHT (poppy crops [3]; measured at green capsule stage): 94.5 ab cm
- CAPS/SEED RATIO (poppy crops [4]): 10.444 a
- CROP WEIGHT (poppy crops [4]): 2.24 b t/ha
- MORPHINE (poppy crops [4]): 47.11 b kg/ha
- SEED (poppy crops [4]): 143 c kg/ha
- STRAW (poppy crops [4]): 2099 a kg/ha
- STRAW MORPHINE (poppy crops [4]): 2.24 c %
- HEIGHT (poppy crops [4]; height at end of flowering): 83.4 bc cm
- CAPSULE/SEED RATIO (poppy crops [5]): 0.883 a
- MORPHINE (poppy crops [5]): 26.32 c kg/ha
- PLANT HEIGHT (poppy crops [5]): 67 c cm
- SEED (poppy crops [5]): 1015 b kg/ha
- STRAW (poppy crops [5]): 1255 c kg/ha
- STRAW MORPHINE (poppy crops [5]): 2.09 b %
- YIELD (poppy crops [5]): 2.27 c t/ha
- CAPSULE/SEED RATIO (poppy crops [6]): 0.978 a
- CROP WEIGHT (poppy crops [6]): 2.30 b t/ha
- MORPHINE (poppy crops [6]): 31.32 a kg/ha
- SEED (poppy crops [6]): 955 c kg/ha
- STRAW (poppy crops [6]): 1349 a kg/ha
- STRAW MORPHINE (poppy crops [6]): 2.32 a %
- PLANT HEIGHT (poppy crops [6]; measured at early green capsule stage): 82.6 a cm
- CAPS/SEED RATIO (poppy crops [7]): 8.976 a
- CROP WEIGHT (poppy crops [7]): 2.60 b t/ha
- MORPHINE (poppy crops [7]): 49.48 a kg/ha
- SEED (poppy crops [7]): 187 c kg/ha
- STRAW (poppy crops [7]): 2343 a kg/ha
- STRAW MORPHINE (poppy crops [7]): 2.11 c %
- PLANT HEIGHT (poppy crops [7]; 6 weeks after last application): 97.0 c cm
- LODGING (poppy crops [7]; at capsule harvest): 2.7 b %
